Assays:
HSV-2 = experiment: In vitro activity, HSV-2 infected Vero cells; assay type: cell-based; conditions: Human alphaherpesvirus 2, Vero
Description: The in vitro activity of the new compounds was measured as described in WO2017/174640 and in WO2019/068817.

HSV-1 = experiment: Survival of mice in first oHSV experiment; assay type: in vivo, Balbc/j mice; conditions: high dose HSV group subsequently treated with compound
Description: Pharmacological animal groups (8 animal per group, 64 animals in total) were organized as such: • 1. Control virus-untreated group: test compound vehicle (200 μL, 5% DMSO; 0.5% hydroxypropylmethylcellulose (HPMC) in PBS) oral gavage (20 gauge needle standard suspension applicator), once a day, for 10 days and starting 72 h after virus injection for the other groups. • 2. Control virus vehicle-treated group: 50 μL of virus vehicle, intratumoral injection when tumors reached an average volume of app. 40 mm^3, with test compound vehicle, oral gavage, once a day, for 10 days and starting 72 h after vehicle virus injection. • 3. HSV-1 (quantity 1; 5×10^6 pfu)-treated group: 50 μL of HSV-1 (5×10^6), intratumoral injection when tumors reached an average volume of app. […] HSV-1 (quantity 2; 1×10^8 pfu)-treated group: 100 μL of HSV-1 (1×10^8) intratumoral injection when tumors reached an average volume of app. […] HSV-1 (quantity 1; 5×10^6 pfu)-test compound-treated group: 50 μL of HSV-1 (5×10^6), intratumoral injection when tumors reached an average volume of app. […] HSV-1 (quantity 2; 1×10^8 pfu)-test compound-treated group: 100 μL of HSV-1 (1×10^8), intratumoral injection when tumors reached an average volume of app. […]
As previously mentioned, tumor volume and body weight of the animals were measured and recorded three times per week. […]

## Cc1nc(N(C)C(=O)Cc2ccc(-c3cc(F)ccc3F)cc2)sc1[S@@](C)(=N)=O [Example 7(−), (−)-(S)-2-(2′,5′-Difluoro-[1,1′-biphenyl]-4-yl)-N-methyl-N-(4-methyl-5-(S-methylsulfonimidoyl)thiazol-2-yl)acetamide]
HSV-2
  IC50: 10 to 50 nM
HSV-1
  rescue of mice from virus-induced death: the mice can be rescued

— patent US20240408068A1, “Helicase Primase Inhibitors For Treating Cancer In A Combination Therapy With Oncolytic Viruses” (priority 2018, published 2024)
